In patent publication US20230348852A1, “METHODS AND COMPOSITIONS FOR OCULAR CELL THERAPY” (NOVARTIS AG, priority 2020, published 2023):

What was measured:
[1] = tested on: human limbal stem cells; assay: Human limbal stem cell population expansion and measurement (expansion factor, p63alpha-positive cells); type: cell-based; conditions: 10 micromolar in XVIVO15 medium, two passages; for Expansion factor: ratio of expanded population to seeded cells; for Percentage of p63a-positive cells: share of Sytox Orange-positive nuclei expressing p63alpha
Description: Cells were cultured at 37° C. in 5% CO2.
For each compound, two sets of cultures were generated. A first set of cultures was fixed in 4% PFA for 20 minutes at room temperature after cells isolated from the cornea had attached to the cell culture dish (typically 24 h after cell plating). A second set of cultures was fixed in 4% PFA for 20 minutes at room temperature after being cultured for two passages. Cells were passaged when they reached 90-100% confluence.
In order to observe that the expanded cell population expressed p63alpha, this was measured by immunohistochemistry as follows. The fixed cell cultures were permeabilized and blocked in a blocking solution of 0.3% Triton X-100 (Sigma-Aldrich) and 3% donkey serum in PBS for 30 minutes. Cells were then labeled with primary antibody in the blocking solution for 12 hours at 4° C. Primary antibody used was p63alpha from Cell Signalling. Samples were washed in PBS three times and donkey-raised secondary antibody Alexa Fluor 488 (Molecular Probes) at 1:500 dilution were applied for 30 minutes at room temperature. Cell nuclei were then labeled in a solution of 0.5 micromolar of Sytox Orange (ThermoFisher) in PBS for 5 minutes at room temperature.
To evaluate the percentage of p63alpha-positive cells, the number of cells labeled by the anti-p63alpha antibody was counted and the total number of cells was determined by counting the number of nuclei stained by Sytox Orange. The proportion of p63alpha-positive cells was then determined by calculating the percentage of Sytox-orange-positive nuclei that also expressed p63alpha.
To evaluate cell expansion ratios, nuclei were counted using a Zeiss LSM 880 confocal microscope. The expansion factor was then determined by calculating the ratio of the expanded population of cells to population of seeded cells.

[2] = tested on: human B2M; assay: CRISPR/Cas9-mediated deletion of B2M in HEK293 (lipofection, FACS); type: cell-based; conditions: lipofection of tracrRNA, gRNA and Cas9 mRNA; FACS after 72 h
Description: One day before transfection, 500′000 HEK293cells (ATCC, Manassas, VA) were plated in a 35 mm dish and grown in DMEM/10%FBS. The following day, cells were transfected with a mixture of tracrRNA-gRNA-Cas9 mRNA. A stock of 10 micromolar was prepared resuspending 20 nanomoles of gRNA and 20 nanomoles tracrRNA in 2000 microlitre 10 millimolar Tris buffer pH7.4 each.
The mixture was added drop wise to the culture dish in 2.5 ml DMEM/10%FBS medium. The transfection reagent alone represented the transfection negative control.
After 6 h incubation in 5% CO2 at 37° C. medium was replaced with fresh DMEM/10%FBS medium. After 72 h in a 5% CO2 incubator cells were prepared for FACS analysis. FACS analysis: HEK293 cells were treated with Accutase (ThermoFisher, Cat # A1110501) for 20 minutes in 5% CO2 at 37° C. The reaction was stopped by using cell culture medium containing 10% Serum and transferred to a falcon tube for a centrifugation step (1000 rpm, 5 minutes). After aspirating the medium cells were resuspended in 200 microlitre FACS buffer (PBS/10%FBS).
To analyze the expression of B2M and HLA-ABC, 5 microlitre APC mouse anti-human β2-microglobulin antibody (Biolegend, Cat #316312) and 20 microlitre PE mouse anti-human HLA-ABC antibody (BD Bioscience, Cat # 560168) were added to the cell suspension and incubated for 30 minutes on ice. Cells were washed 3 times after antibody labelling with FACS buffer and resuspended in 500 microlitre in FACS buffer.
Each sample was transferred to one well of a round bottom 96 well plate and analyzed on a BD LSRFortessa X-20 device. FACS data were analyzed using BD FACSDiva software.

[3] = tested on: B2M; assay: sgRNA screening for B2M knockout in LSCs (nucleofection, FACS); type: cell-based, human; conditions: Cas9 protein SEQ ID NO: 106, LSCs at passage 3, FACS after around 3 days
Description: Cells were cultured under these conditions for 24-48 hours at 37° C. in 5% CO2.
LSCs were nuclofected with selected gRNAs (Table 6) followed by FACS analysis / MACS separation.
After scraping the cells, the reaction was stopped by using cell culture medium containing 10% Serum and transferred to a falcon tube. After counting cells using Vi-cell 300′000 cells were prepared per reaction by transferring 300′000 cells in single tubes and centrifuged at 1000 rpm for 5 min. The supernatant was aspirated using manually pipetting to avoid cell loss and the cells were resuspended in the Stem cell nucleofector solution II (Lonza, Cat #VPH-5022). Resuspend cells in nucleofector solution immediately before adding the Cas9 RNP:sgRNA mixture. To obtain the nucleofection mixture, 5 µg high concentrated (≥5 µg/µl) Cas9 protein of SEQ ID NO: 106 (volume = 0.78 µl) was mixed with 19.5 µg sgRNA of Table 6 (volume = 12.2 µl) and incubated for 20 min at room temperature. […] The Cas9 protein-guideRNA complex was added to the cell suspension and transferred to the electroporation cuvette immediately. Cells were transfected using the nucelofector device (Lonza, Amaxa Nucleofector II) and program A023. After nucleofection cells were transferred from cuvette to one well of a 24 well synthemax coated plate containing pre-warmed LSC medium including 3 µM LATS compound and 10 µM Rock inhibitor Y-27632 (Nature 1997, vol. 389, pp. 990-994). Incubate LSCs in a 5% CO2 incubator for around 3 days until cells are 90% confluent.
LSCs were treated with TryLE®Express Enzym (ThermoFisher, Cat #12605010) for 15 minutes in 5% CO2 at 37° C. After scraping the cells, the reaction was stopped by using cell culture medium containing 10% Serum and transferred to a falcon tube for a centrifugation step (1000 rpm, 5 minutes). After aspirating the medium cells were resuspended in 200 µl FACS buffer (PBS/10%FBS).
To analyze the expression of B2M and HLA-ABC, 5 µl APC mouse anti-human β2-microglobulin antibody (Biolegend, Cat#316312) and 20 µl PE mouse anti-human HLA-ABC antibody (BD Bioscience, Cat # 560168) were added to the cell suspension and incubated for 30 minutes on ice.
Cells were washed 3 times after antibody labelling with FACS buffer and resuspended in 200 µl in FACS buffer (depending on the cell number).
FACS data were analyzed using BD FACSDiva software and FlowJo software.

| Molecule | Expansion factor [1] | Percentage of p63a-positive cells [1] [%] | B2M knockout efficiency in HEK293 [2] [%] | B2M knockout efficiency in LSCs after nucleofection [3] [%] |
| --- | --- | --- | --- | --- |
| CC(C)(Nc1nc(-c2ccncc2Cl)nc2cnccc12)C(F)(F)F [2-(3-chloropyridin-4-yl)-N-(1,1,1-trifluoro-2-methylpropan-2-yl)pyrido[3,4-d]pyrimidin-4-amine] | 961 | 87 | – | – |
| FC(F)(F)C1CN(c2nc(-c3ccncc3)nc3cnccc23)CCN1 (stereo not drawn) [2-(pyridin-4-yl)-4-(3-(trifluoromethyl)piperazin-1-yl)pyrido[3,4-d]pyrimidine] | 1051 | 90 | – | – |
| FC(F)(F)C1(Nc2nc(-c3ccncc3)nc3cnccc23)CCC1 [2-(pyridin-4-yl)-N-[1-(trifluoromethyl)cyclobutyl]pyrido[3,4-d]pyrimidin-4-amine] | 1712 | 95 | – | – |
| CC(C)(CO)Nc1nc(-c2ccncc2)nc2cnccc12 [2-methyl-2-{[2-(pyridin-4-yl)pyrido[3,4-d]pyrimidin-4-yl]amino}propan-1-ol] | 1160 | 89 | – | – |
| FC(F)(F)C1(Nc2nc(-c3ccncc3)cc3cnccc23)CC1 [3-(pyridin-4-yl)-N-(1-(trifluoromethyl)cyclopropyl)-2,6-naphthyridin-1-amine] | 1241 | 95 | – | – |
| O[C@H]1CCC[C@@H]1Nc1nc(-c2ccncc2)nc2cnccc12 [(1S,2S)-2-{[2-(pyridin-4-yl)pyrido[3,4-d]pyrimidin-4-yl]amino}cyclopentan-1-ol] | 39 | 6 | – | – |
| CC(C)(C)Nc1cc(-c2ccncc2)nc2cnccc12 [Example 2, N-(tert-butyl)-2-(pyridin-4-yl)-1,7-naphthyridin-4-amine] | 1717 | 93 | – | – |
| CC1(Nc2cc(-c3ccncc3)cc3cnccc23)CC1 [N-(1-methylcyclopropyl)-7-(pyridin-4-yl)isoquinolin-5-amine] | 681 | 80 | – | – |
| CC1CCCC1Nc1nc(-c2ccncc2)nc2cnccc12 (stereo not drawn) [N-(2-methylcyclopentyl)-2-(pyridin-4-yl)pyrido[3,4-d]pyrimidin-4-amine] | 976 | 86 | – | – |
| CC(C)Nc1nc(-c2ccncc2)nc2cnccc12 [N-(propan-2-yl)-2-(pyridin-4-yl)pyrido[3,4-d]pyrimidin-4-amine] | 1275 | 93 | – | – |
| c1cc(-c2nc(NC3CCCC3)c3ccncc3n2)ccn1 [N-cyclopentyl-2-(pyridin-4-yl)pyrido[3,4-d]pyrimidin-4-amine] | 1048 | 87 | – | – |
| CCCNc1nc(-c2c[nH]nc2C(F)(F)F)nc2cnccc12 [N-propyl-2-(3-(trifluoromethyl)-1H-pyrazol-4-yl)pyrido[3,4-d]pyrimidin-4-amine] | 991 | 86 | – | – |
| CCCNc1nc(-c2ccncc2)nc2cnccc12 [N-propyl-2-(pyridin-4-yl)pyrido[3,4-d]pyrimidin-4-amine] | 1423 | 93 | – | – |
| 10-HEYJA000007: gRNA targeting human B2M; targeting domain SEQ ID NO: 117; sgRNA SEQ ID NO: 168 (nucleic acid, listed as RNA, chemistry not given here) guide: AGUCACAUGGUUCACACGGCGUUUUAGAGCUAGAAAUAGCAAGUUAAAAUAAGGCUAGUCCGUUAUCAACUUGAAAAAGUGGCACCGAGUCGGUGCUUUU | – | – | 13 | 1 |
| 11-HEYJA000008: gRNA targeting human B2M; targeting domain SEQ ID NO: 118; sgRNA SEQ ID NO: 169 (nucleic acid, listed as RNA, chemistry not given here) guide: CCACCUCUUGAUGGGGCUAGGUUUUAGAGCUAGAAAUAGCAAGUUAAAAUAAGGCUAGUCCGUUAUCAACUUGAAAAAGUGGCACCGAGUCGGUGCUUUU | – | – | 3 | 1 |
| 2-CR004366: gRNA targeting human B2M; targeting domain SEQ ID NO: 109; sgRNA SEQ ID NO: 160; from Dharmacon (nucleic acid, listed as RNA, chemistry not given here, gRNA targeting human B2M; from Dharmacon) guide: CGUGAGUAAACCUGAAUCUUGUUUUAGAGCUAGAAAUAGCAAGUUAAAAUAAGGCUAGUCCGUUAUCAACUUGAAAAAGUGGCACCGAGUCGGUGCUUUU | – | – | 33 | 2 |
| 3-CR004366: gRNA targeting human B2M; targeting domain SEQ ID NO: 110; sgRNA SEQ ID NO: 161; from Dharmacon (nucleic acid, listed as RNA, chemistry not given here, gRNA targeting human B2M; from Dharmacon) guide: AAGUCAACUUCAAUGUCGGAGUUUUAGAGCUAGAAAUAGCAAGUUAAAAUAAGGCUAGUCCGUUAUCAACUUGAAAAAGUGGCACCGAGUCGGUGCUUUU | – | – | 12 | 2 |
| 5-CR004366: gRNA targeting human B2M; targeting domain SEQ ID NO: 112; sgRNA SEQ ID NO: 163; from Dharmacon (nucleic acid, listed as RNA, chemistry not given here, gRNA targeting human B2M; from Dharmacon) guide: CUGAAUCUUUGGAGUACCUGGUUUUAGAGCUAGAAAUAGCAAGUUAAAAUAAGGCUAGUCCGUUAUCAACUUGAAAAAGUGGCACCGAGUCGGUGCUUUU | – | – | 33 | 2 |
| 7-HEYJA000003: gRNA targeting human B2M; targeting domain SEQ ID NO: 114; sgRNA SEQ ID NO: 165 (nucleic acid, listed as RNA, chemistry not given here) guide: CUCGCGCUACUCUCUCUUUCGUUUUAGAGCUAGAAAUAGCAAGUUAAAAUAAGGCUAGUCCGUUAUCAACUUGAAAAAGUGGCACCGAGUCGGUGCUUUU | – | – | 37 | 8 |
| CR006979: gRNA targeting human B2M; targeting domain SEQ ID NO: 140; sgRNA SEQ ID NO: 177 (nucleic acid, listed as RNA, chemistry not given here) guide: UCCUGAAUUGCUAUGUGUCUGUUUUAGAGCUAGAAAUAGCAAGUUAAAAUAAGGCUAGUCCGUUAUCAACUUGAAAAAGUGGCACCGAGUCGGUGCUUUU | – | – | – | 2 |
